Patent US11135320B2, “Radioligands for pretargeted pet imaging and methods of their therapeutic use” (priority 2015, dated 2021)
“And” between values parts separate entries of the source, which are not always exact repeats. Equal entries are not always repeated.

Assays:
[1] = Partition coefficient (log D), 1-octanol / PBS; assay type: physicochemical; settings: 1-octanol / PBS (pH 7.4)
Protocol: Once the precursors were made, the tetrazine constructs were then radiolabeled via incubation with [^64Cu]—CuCl2 for 10 minutes at room temperature in 200 mM NH4OAc, pH 5.0 and purified via reverse-phase C18 HPLC (tR=8.7 min for ^64Cu-Tz-SarAr and 9.7 min for ^64Cu-Tz-PEG7NOTA; FIGS. 6-9). In both cases, the identity of the radiolabeled product was confirmed via co-injection of unlabeled ^natCu-Tz-SarAr and ^natCu-Tz-PEG7-NOTA standards. Ultimately, ^64Cu-Tz-PEG7NOTA was prepared in greater than 99% radionuclidic purity, 78±6% decay-corrected isolated yield, and a specific activity of 323±37 mCi/μmol (n=6). Similarly, ^64Cu-Tz-SarAr was synthesized in greater than 99% radionuclidic purity, 79±7% decay-corrected isolated yield, and a specific activity of 310±36 mCi/μmol (n=6). The ^64Cu-Tz-NOTA radioligand was synthesized, radiolabeled, and purified as previously reported by Zeflis et al. J. Nucl. Med. 2013, 54, 1389-1396, which is hereby incorporated by reference in its entirety. In order to probe the influence of the structural changes on solubility, the partition coefficients of the various radioligands were determined using PBS (pH 7.4) and 1-octanol (Table 1). […] For example, the replacement of NOTA with SarAr rendered ^64Cu-Tz-SarAr (log D=−2.08±0.06) more hydrophobic than ^64Cu-Tz-NOTA (log D=−2.54±0.1).
^64Cu-Tz-PEG7-NOTA, ^64Cu-Tz-NOTA, or ^64Cu-Tz-SarAr (1 μCi) was added to a mixture of 3 mL PBS (pH 7.4) and 3 mL 1-octanol. The resulting mixture was then vortexed thoroughly for 10 minutes and subsequently centrifuged at 1,000 rpm for 10 min. 1 mL of each layer (PBS and 1-octanol) was then collected, and the amount of radioactivity in each sample was counted on a gamma counter calibrated for ^64Cu. The partition coefficient (log D) was calculated using the formula: Log D=log10[(countsoctanol)/(countsPBS] All experiments were performed in triplicate. Reaction of ^64Cu-Tz Radioligands with huA33-TCO

[2] = PET imaging with ^64Cu-labeled tetrazine radioligands in healthy mice; assay type: in vivo, athymic nude mice
Protocol: All PET imaging experiments were performed on an Inveon PET/CT scanner (Siemens Healthcare Global). Healthy female athymic nude mice (n=4 per radioligand) were administered ^64Cu-Tz-NOTA, ^64Cu-Tz-PEG7-NOTA, or ^64Cu-Tz-SarAr (300-350 μCi in 200 μL 0.9% sterile saline) via intravenous tail vein injection (t=0). Approximately 5 minutes prior to the PET images, mice were anesthetized by inhalation of 2% isoflurane (Baxter Healthcare, Deerfield, Ill.)/oxygen gas mixture and placed on the scanner bed; anesthesia was maintained using 1% isoflurane/gas mixture. Static scans were recorded at various time points after injection with a minimum of 30 million coincident events (10-30 min total scan time). An energy window of 350-700 keV and a coincidence timing window of 6 ns were used. Data were sorted into 2-dimensional histograms by Fourier re-binning, and the images were reconstructed using a two-dimensional ordered subset expectation maximization (2DOSEM) algorithm (16 subsets, 4 iterations) into a 128×128×159 (0.78×0.78×0.80 mm) matrix. The image data was normalized to correct for non-uniformity of response of the PET, dead-time count losses, positron branching ratio, and physical decay to the time of injection but no attenuation, scatter, or partial-volume averaging correction was applied. Activity concentrations (percentage of dose per gram of tissue [% ID/g]) and maximum intensity projections were determined by conversion of the counting rates from the reconstructed images. All of the resulting PET images were analyzed using ASIPro VM™ software.

[3] = mouse, in vivo; cited from earlier work
[4] = Dosimetry calculations (OLINDA) for huA33-based PET imaging strategies; set-up: species or system human (70-kg Standard Man model, from mouse biodistribution); settings: pretargeting
Protocol: The radiation dosimetry of ^64Cu-Tz-SarAr was performed to ensure the selective delivery of radioisotopes to malignant tissues at radiation doses below the doses of traditional radioimmunoconjugates. To this end, dosimetry calculations were performed using the biodistribution data collected and the OLINDA computer program to determine the mean organ absorbed doses (rad/mCi) and effective dose (rem/mCi) for each strategy (Table 23). The total effective dose of the ^64Cu-Tz-SarAr pretargeting strategy with a 24 h interval period was 0.041 rem/mCi, a slight reduction compared to the 0.046 rem/mCi effective dose created by ^64Cu-Tz-NOTA. This difference was due to the significant reduction in the mean organ absorbed dose to the large intestine. Moreover, the total effective dose of the ^64Cu-Tz-SarAr pretargeting strategy was inversely proportional to the duration of the accumulation interval. For example, the effective dose decreased from 0.041 rem/mCi with a 24 h interval to 0.038 rem/mCi with a 48 h interval to 0.034 with a 120 h interval.
Mouse biodistribution data were expressed as normal-organ mean standard uptake values (SUVs) versus time post-administration. In first order, that SUVs were independent of body mass and thus the same among species, the mean SUV in mouse organ i, SUVOrgan i|Mouse, was converted to the fraction of the injected dose in each human organ I, FIDOrgan I|Human, using the following formula:
[formula] and the organ and total-body masses of the 70-kg Standard Man anatomic model. […] The cumulated activity, or residence time, in human organ i, μCi, in μCi h/μCi, was then calculated by analytically integrating the time-activity function in organ i, replacing the biological clearance constant, (λbλj, for each component j of the fitted exponential function with the corresponding effective clearance constant, (λeλj=(λbλj+λp, where λp is the physical decay constant of the radionuclide. The resulting organ residence times were entered into the OLINDA computer program to yield the mean organ absorbed doses and effective dose in rad/mCi and rem/mCi, respectively. Statistical Analysis

O=C([O-])CN1CCN(CC(=O)[O-])CC(Cc2ccc(NC(=O)CCCC(=O)NCc3ccc(-c4nncnn4)cc3)cc2)N(CC(=O)[O-])CC1.[64Cu+2] (stereo not drawn) [^64Cu-Tz-NOTA]
Log D [1]: −2.54±0.1 and −2.54 +/− 0.10 | excretion pathway (PET imaging) [2]: eliminated somewhat sluggishly through the gastrointestinal pathway | t1/2 of clearance through the intestinal tract [3]: ~4 h

O=C(O)CN1CCN(CC(=O)O)CC(Cc2ccc(NC(=S)NCCOCCOCCOCCOCCOCCOCCOCCNC(=O)CCCC(=O)NCc3ccc(-c4nncnn4)cc3)cc2)N(CC(=O)O)CC1.[64Cu] (stereo not drawn) [^64Cu-Tz-PEG7-NOTA]
Log D [1]: −2.44±0.08 and −2.44 +/− 0.08 | excretion pathway (PET imaging) [2]: excretion through both the intestines and the kidneys

NC12CNCCNCC(NCc3ccc(CNC(=O)CCCC(=O)NCc4ccc(-c5nncnn5)cc4)cc3)(CNCCNC1)CNCCNC2.[64Cu+2] [^64Cu-Tz-SarAr]
Log D [1]: −2.08 +/− 0.06 | excretion pathway (PET imaging) [2]: cleared quickly and cleanly through the urinary tract | Brain absorbed dose ([4]; 24 h interval): 0.0361 rad/mCi | Breasts absorbed dose ([4]; 24 h interval): 0.0323 rad/mCi | Effective Dose ([4]; 24 h interval): 0.041 rem/mCi and 0.0414 rem/mCi | Heart Wall absorbed dose ([4]; 24 h interval): 0.0427 rad/mCi | Kidneys absorbed dose ([4]; 24 h interval): 0.0661 rad/mCi | Lower Lg. Int. Wall absorbed dose ([4]; 24 h interval): 0.0482 rad/mCi | Osteogenic Cells absorbed dose ([4]; 24 h interval): 0.0893 rad/mCi | Ovaries absorbed dose ([4]; 24 h interval): 0.0401 rad/mCi | Pancreas absorbed dose ([4]; 24 h interval): 0.0395 rad/mCi | Skin absorbed dose ([4]; 24 h interval): 0.0297 rad/mCi | Small Intestine absorbed dose ([4]; 24 h interval): 0.0418 rad/mCi | Spleen absorbed dose ([4]; 24 h interval): 0.0370 rad/mCi | Stomach Wall absorbed dose ([4]; 24 h interval): 0.0552 rad/mCi | Testes absorbed dose ([4]; 24 h interval): 0.0345 rad/mCi | Thymus absorbed dose ([4]; 24 h interval): 0.0349 rad/mCi | Upper Lg. Int. Wall absorbed dose ([4]; 24 h interval): 0.0409 rad/mCi | Uterus absorbed dose ([4]; 24 h interval): 0.0410 rad/mCi | Effective Dose ([4]; 48 h interval): 0.038 rem/mCi and 0.0377 rem/mCi | Kidneys absorbed dose ([4]; 48 h interval): 0.0539 rad/mCi | Pancreas absorbed dose ([4]; 48 h interval): 0.0364 rad/mCi | Spleen absorbed dose ([4]; 48 h interval): 0.0205 rad/mCi | Stomach Wall absorbed dose ([4]; 48 h interval): 0.0422 rad/mCi | Uterus absorbed dose ([4]; 48 h interval): 0.0383 rad/mCi | Effective Dose ([4]; 120 h interval): 0.034 rem/mCi and 0.0341 rem/mCi | Heart Wall absorbed dose ([4]; 120 h interval): 0.0330 rad/mCi | Kidneys absorbed dose ([4]; 120 h interval): 0.0566 rad/mCi | Lungs absorbed dose ([4]; 120 h interval): 0.0216 rad/mCi | Osteogenic Cells absorbed dose ([4]; 120 h interval): 0.0720 rad/mCi | Spleen absorbed dose ([4]; 120 h interval): 0.0225 rad/mCi
